The values below are quoted from earlier work in paper PMC4232510, “Identification of Functionally Important Residues of the Rat P2X4 Receptor by Alanine Scanning Mutagenesis of the Dorsal Fin and Left Flipper Domains” (PLoS ONE, 2014).

What all share (details): cited from earlier work
For one data set, the system named is P2X4R L206A. Also on record: method as in PMID 24943126; key: n.f.: non-functional mutants; ↑: mutant with significant increased EC50 in comparison to WT (values represent fold increase); ≈: close to WT receptor; D: affected time-constant of the desensitizing current response.
The test system of the next data set is P2X3R M200C. Further details: method as in PMID 24989924.
The subject of a further data set is P2X2R D277A. Further details: method as in PMID 18194442; key: n.f.: non-functional mutants; ↑: mutant with significant increased EC50 in comparison to WT (values represent fold increase); ≈: close to WT receptor; D: affected time-constant of the desensitizing current response.
The subject of a further data set is P2X3R D266A. Further details: method as in PMID 15475563; key: n.f.: non-functional mutants; ↑: mutant with significant increased EC50 in comparison to WT (values represent fold increase); ≈: close to WT receptor; D: affected time-constant of the desensitizing current response.
In the next data set the test system is P2X3R S269A. Also on record: method as in PMID 16226373; key: n.f.: non-functional mutants; ↑: mutant with significant increased EC50 in comparison to WT (values represent fold increase); ≈: close to WT receptor; D: affected time-constant of the desensitizing current response.
Another data set deals with P2X1R P287C. Also on record: method as in PMID 17428985; key: n.f.: non-functional mutants; ↑: mutant with significant increased EC50 in comparison to WT (values represent fold increase); ≈: close to WT receptor; D: affected time-constant of the desensitizing current response.

Consider `Nc1ncnc2c1ncn2[C@@H]1O[C@H](COP(=O)(O)OP(=O)(O)OP(=O)(O)O)[C@@H](O)[C@H]1O` [ATP], for which the “change in EC50 for ATP” value with P2X4R L206A is “L206A: ≈[49]”; in the data set with P2X2R D277A it was “D277A:: ≈[56]”; with P2X1R P287C, “P287C: ≈[9]”. Moreover, the “fold increase of EC50 for ATP in comparison to WT” value in the data set with P2X3R M200C is “M200C:↑8x[58]”. In addition, the change in desensitization result is “D266A: D[53]” in the data set with P2X3R D266A and “S269A: D[54]” in the data set with P2X3R S269A.
